Experiments:
N. elongata = assay: Bacterial survival assay (3 h), CFU counts; assay type: cell-based, Neisseria elongata
Procedure: (§1) Bacterial Survival Assay (3 h)
(§2) To measure bacterial survival (FIGS. 2 and 4), different bacteria were exposed to various concentrations of the compounds (as indicated) in their specific growth media (see the culture conditions above) for 3 h at 37° C. To perform this assay, all strains were grown overnight in their corresponding agar media. Cell-suspension corresponding to an OD600=0.05 were subsequently prepared. In parallel, fresh stock DMSO solutions of the compounds were prepared (100×, with final concentrations being indicated in the different figures) and 1.8 μL of the corresponding solutions were added per well of 96-well plates. In each well, 178.2 μL of bacterial suspension were subsequently added. Bacteria were allowed to grow during […] at 37° C. with 5% CO2. After incubation, serial dilutions (until 10^−6) were performed and 50 μL of each diluted solution were spread on agar plates. After an overnight incubation at 37° C. with/without 5% CO2, CFU were enumerated. All these assays were performed at least in triplicates.
(§3) To verify if the toxicity of BPh4^− is specific to the Neisseria genus, the percentage of survival of several Neisseria species was assessed after treatment with 50 μM of NaBPh4^− for 3 h (FIG. 4A). […]

[1] = Toxicity of NaBPh4 in mice; assay type: in vivo, Balb/c mice; details: mice treated with NaBPh4 (IV or IP)
Procedure: (§4) The strain LNP 24198 of Neisseria meningitidis expressing the luxCDABE gene under the control of the porBp promoter was used. Three groups, with five seven-week-old Balb/c mice each, were infected with luminescent Neisseria meningitidis. For this, 200 μL of bacterial cultures at OD600nm of 0.1 (5×10^7 cells/mL) mixed with 150 μL of human transferrin (20 mg/mL) was injected in each mouse. Two hours later, one group was treated with 100 μL of NaBPh4 (20 μM) injected into the tail veins by intravenous injection (IV), and one group was treated with the same dose injected by intraperitoneal injection (IP). The remaining five were treated with 100 μL of DMSO as controls. NaBPh4 was initially prepared at 20 mM in DMSO before being diluted into PBS to reach a final concentration of 20 μM (with 0.1% DMSO). DMSO was diluted in PBS in the same manner to achieve 1:1000. To test a possible toxicity of NaBPh4, one group of 5 non-infected mice was treated with 100 μL of DMSO (IP) and two groups with 100 μL NaBPh4 (IV or IP). Luminescence was then measured, on the front and back of the mice, at different time points (0, 4, 8, 24 and 48 hours post-infection). The light signal was determined for each mouse using the ROI (Region Of Interest) tool of the IVIS Lumina Ill.
(§5) The effect of NaBPh4 administration in a murine model of N. meningitidis infection was assessed.

[2] = tested on: N. meninigitidis (LNP24198) expressing luciferase (LuxABCDE); assay: N. meningitidis luminescent strain growth assay (16 h); assay type: cell-based, Neisseria meningitidis
Procedure: N. meningitidis Luminescent Strain Growth Assay (16 h)
To perform the library screening (FIG. 1) or to compare the activity of the different boron-containing salts (FIG. 3), the amount of light produced after 16 h of growth for N. meningitidis luminescent strain was measured. Contrarily to optical density (OD) readings which can be misleading due to the absorbance of dead cells, this measurement is directly correlated to the number of live cells, as the half-life of the luciferase and its substrate are limited and that the emission of light is therefore not subsisting after the death of the cells. To perform this assay, N. meninigitidis (LNP24198) expressing luciferase (LuxABCDE) was grown overnight under the control of the constitutive promoter porBp in GCB agar media, and a cell-suspension corresponding to an OD600=0.01 was subsequently prepared. In parallel, fresh stock DMSO solutions of the compounds were prepared (100×, with final concentrations being indicated in the different figures) and 1.8 μL of the corresponding solutions were added per well of 96-well plates. In each well, 178.2 μL of bacterial suspension were subsequently added. Bacteria were allowed to grow during 16 h at 37° C. with 5% CO2. The emitted light was measured using a 96-well plate luminometer (PerkinElmer Wallac 1420 Victor^3) and results are expressed in relative light unit (RLU). All these assays were performed at least in triplicates.
To screen molecules for their antibacterial activity, a luminescent system was used, as previously described for other bacteria. A clinical isolate of N. meninigitidis (LNP24198) expressing luciferase (LuxABCDE) under the control of the constitutive promoter porBp was used, as similarly described, located in the intergenic region next to NMB1732. More than 2400 compounds from different origins were screened to identify candidates with the ability to inhibit the growth of N. meningitidis after 16 h at 37° C. […] It is noteworthy that stock solutions for all tested compounds were prepared in DMSO and that the final DMSO concentration of the tested solutions was kept at 1%, a concentration which has proven not to affect the growth of N. meningitidis (FIG. 1A). […] An investigation of the effect of the BPh4^− moiety was then pursued.
To exclude any salt-specific effect, the effect of several BPh4^− and BF4^− salts on the growth of N. meningitidis luminescent strain was tested. The growth of N. meningitidis was measured after a 16 h-exposure to different concentrations of various BPh4^− and BF4^− salts. From this assay, the MIC (minimum inhibitory concentration, the lowest concentration that prevents visible bacterial growth, <800 RLU) was calculated. All BPh4 salts tested (sodium, ammonium and potassium) were all highly toxic for N. meningitidis.
Several borate compounds were prepared and their ability to inhibit N. meningitidis growth was assessed using the luminescent system described at Example 2.

N. meningitidis = assay: Bacterial survival assay (3 h), CFU counts; assay type: cell-based, Neisseria meningitidis
Procedure: as §1, §2
(§6) Therefore, the bactericidal activity was assessed for the 4 compounds harboring a BPh4^− identified from the initial screen described above (AnIII-7, AnIII-6, AnII-18, NaBPh4). N. meningitidis was treated with 50 μM of each compound and the % survival cells (compared with DMSO 1% control) was measured using serial dilutions and CFU counts. […] To verify if the bactericidal effect could be observed for the other pathogen of the Neisseria family, a clinical isolate of. N. gonorrhoeae (LNP16626 [3]) was also treated with 50 μM of the same compounds, respectively, using the same assay.
(§7) The MBC (minimum bactericidal concentration that kill >99.999%), the concentration necessary to completely abrogate bacterial survival after a 3 h exposure to NaBPh4, was next assessed.

[3] = tested on: N. meningitidis (strain LNP 24198, luminescent); assay: Mice infection with luminescent N. meningitidis; assay type: in vivo, Balb/c mice; details: IV or IP administration 2 h after infection, 24 h and 48 h post-infection, relative to vehicle (DMSO)
Procedure: as §4, §5

N. lactamica = assay: Bacterial survival assay (3 h), CFU counts; assay type: cell-based, Neisseria lactamica
Procedure: as §1, §2, §3

N. sicca = assay: Bacterial survival assay (3 h), CFU counts; assay type: cell-based, Neisseria sicca; details: 50 μM, compared with N. meningitidis and N. gonorrhoeae
Procedure: as §1, §2, §3

[4] = tested on: N. gonorrhoeae (LNP16626); assay: Bacterial survival assay (3 h), CFU counts; assay type: cell-based, Neisseria gonorrhoeae
Procedure: as §1, §2, §6, §7

Moraxella catarrhalis = assay: Bacterial survival assay (3 h), CFU counts; assay type: cell-based; details: 50 μM, compared with N. meningitidis and N. gonorrhoeae
Procedure: as §1, §2
(§8) To verify if the toxicity of BPh4^− is specific to the Neisseria genus, the percentage of survival of several Neisseria species was assessed after treatment with 50 μM of NaBPh4^− for 3 h (FIG. 4A). […] Other Gram-negative species such as Yersinia enterocolitica and Citrobacter rodentium (order Enterobacterales) or Moraxella catarrhalis (order Pseudomonadeles), but also Gram-positive species such as Staphylococcus aureus and Actinobacteria with M. smegmatis, were also tested.

Citrobacter rodentium = assay: Bacterial survival assay (3 h), CFU counts; assay type: cell-based; details: 50 μM, compared with N. meningitidis and N. gonorrhoeae
Procedure: as §1, §2, §8

M. smegmatis = assay: Bacterial survival assay (3 h), CFU counts; assay type: cell-based; details: 50 μM, compared with N. meningitidis and N. gonorrhoeae
Procedure: as §1, §2, §8

Yersinia enterocolitica = assay: Bacterial survival assay (3 h), CFU counts; assay type: cell-based; details: 50 μM, compared with N. meningitidis and N. gonorrhoeae
Procedure: as §1, §2, §8

Staphylococcus aureus = assay: Bacterial survival assay (3 h), CFU counts; assay type: cell-based; details: 50 μM, compared with N. meningitidis and N. gonorrhoeae
Procedure: as §1, §2, §8

[5] = 50 μM, 3 h, compared with N. meningitidis and N. gonorrhoeae

## [Na+].c1ccc([B-](c2ccccc2)(c2ccccc2)c2ccccc2)cc1 [Compound 1, Sodium tetraphenylborate]
N. elongata; [5]
  survival of N. elongata: less sensitive
N. elongata; N. elongata, 3 h exposure
  MBC (minimum bactericidal concentration that kill >99.999%): higher than 200 μM
[1]
  sign of toxicity in mice: No apparent sign of toxicity
[2]; 100 μM, 16 h at 37° C., 1% DMSO
  inhibition of the growth of N. meningitidis (library screening): active
[2]; Neisseria meningitidis, 16 h
  MIC: 15 µM
N. meningitidis; 50 μM, 3 h, CFU counts vs DMSO 1% control
  survival of N. meningitidis: the detection of any live bacteria was not possible
N. meningitidis; N. meningitidis, 3 h exposure
  MBC (minimum bactericidal concentration that kill >99.999%): 18 µM
[3]
  N. meningitidis bacterial load (luminescence): significantly reduces
N. lactamica; [5]
  survival of N. lactamica: not as sensitive
N. lactamica; N. lactamica, 3 h exposure
  MBC (minimum bactericidal concentration that kill >99.999%): higher than 200 μM
N. sicca
  survival of N. sicca: less sensitive
[4]; 50 μM, 3 h, CFU counts
  survival of N. gonorrhoeae: no viable cells were detected
[4]; N. gonorrhoeae, 3 h exposure
  MBC (minimum bactericidal concentration that kill >99.999%): 7.5 µM
Moraxella catarrhalis
  survival of Moraxella catarrhalis: significantly more resistant
Citrobacter rodentium
  survival of Citrobacter rodentium: significantly more resistant
M. smegmatis
  survival of M. smegmatis: significantly more resistant
Yersinia enterocolitica
  survival of Yersinia enterocolitica: significantly more resistant
Staphylococcus aureus
  survival of Staphylococcus aureus: significantly more resistant

Reference: patent publication US12421264B2 (INSTITUT NATIONAL DE LA RECHERCHE SCIENTIFIQUE, priority 2018, dated 2025)
